Laboratory results reported in patent US11655239B2 (SHANGHAI INSTITUTE OF MATERIAL MEDICA, CHINESE ACADEMY OF …, priority 2019, dated 2023).

Columns and labels:
[1] = test system: pulmonary fibrosis induced by bleomycin in mice; experiment: Active TGF-β1 in BALF (ELISA); assay type: in vivo, mouse; settings: 90 mg/kg; reduced from 123 pg/ml in BLM group
Experimental: The expression level of active TGF-β1 in BALF was detected by using the TGF-β1 ELISA detection kit (Shanghai Wuhao Bio-Tech Co., Ltd). The steps are as follows:
1) 10 standard wells were set on the enzyme coated plate. After the standard was diluted, the volume in each well was 50 μl, and the concentration was 1800 ng/L, 1200 ng/L, 600 ng/L, 300 ng/L, 150 ng/L, respectively. The concentration was the same every two tubes.
2) Sample addition: a blank well (no sample and enzyme reagent) and a well for the sample to be tested were set, respectively. 40 μl of sample dilution solution was added to the well for the sample to be tested on the enzyme coated plate, and then 10 μl of the sample to be tested was added.
3) Incubation: the sample to be tested was sealed with a sealing film and then incubated at 37° C. for 30 minutes.
4) Solution preparation: the concentrated washing liquid (30 times (20 times of 48T)) was diluted 30 times (20 times of 48T) with distilled water for use.
5) Wash: the liquid was discarded and spun dry. Each well was filled with the washing liquid. After standing for 30 seconds, the washing liquid was discarded. This was repeated 5 times and pat dry. […]
10) Determination: zero setting was performed using a blank well within 15 minutes after the reaction was stopped, and the absorbance (OD value) of each well was measured in sequence at a wavelength of 450 nm.

[2] = test system: mouse model of BLM-induced lung injury; experiment: Total number of cells and protein concentration in BALF; assay type: in vivo; settings: mice; 30, 60, 90 mg/kg oral qd
Experimental: 1. The determination of the total number of cells in BALF. The collected BALF was centrifuged at 1000 rpm at 4° C. for 10 minutes, and 25× Cocktail was added to the supernatant and stored at −80° C. for protein concentration detection and subsequent cytokine determination. The cell pellet was resuspend in 50 μL of saline. The total number of cells in BALF was determined with a cell counting instrument.
2. Determination of protein concentration. In the experiment, the BCA protein concentration determination kit (Beyotime) was used to determine the concentration of total protein in BALF. The experimental steps are as follows:
a. 0.8 ml protein standard formulation solution was added to a tube of protein standard (20 mg BSA), dissolved and mixed thoroughly to prepare a protein standard solution at 25 mg/ml. After preparation, the protein standard solution can be used immediately and stored at −20° C.
b. An appropriate amount of 25 mg/ml of protein standard solution was taken and diluted to the target concentration of 0.5 mg/ml. Note that the protein sample and the standard should be diluted with the same solution, or the standard can be diluted with 0.9% NaCl or PBS. […]
d. The absorbance in the wavelength range of 540-595 nm was measured or a microplate reader was used to measure A562.
e. The protein concentration in the sample was calculated according to the sample volume used and standard curve.

[3] = test system: lung fibroblast cell line MRC-5; experiment: Cytotoxic activity test (MTS), MRC-5; assay type: cell-based, human; settings: 10 μM
Experimental: Experimental objective: The cytotoxic activity of compound S15 on bronchial epithelial cell line Beas-2B and lung fibroblast cell line MRC-5 was tested.
1) The human bronchial epithelial cell line Beas-2B and the human embryonic lung fibroblast cell line MRC-5 were collected, and inoculated at a certain density (about 5000-10000 cells) on a 96-well plate (the edge wells were filled with sterile water or PBS). A control was set on each plate (100 μL of culture medium was added);
2) The plate was incubated overnight at 37° C., 5% CO2. The plate was turned upside down and observed under the microscope.
3) The solutions of different concentrations of the compounds to be tested were added to each well, and a control well (culture medium and MTS solution with cells but no drug) and a blank well (without cells, medium and MTS solution) were set, 3 to 5 repetition wells were set for each group. Incubation was performed at 37° C. for 48-72 hours.
4) 10 μL/well of MTS/PMS (20:1, Promega Corp) solution was added to each well containing 100 μL of culture medium, and then the plate was gently shaken. The plate was incubated at 37° C. for 2 to 4 hours.
5) M5 microplate reader (Molecular Device, USA) was used to measure the absorbance of the solution at 490 nm. […]

SMILES: O=C(Nc1cccc(C(F)(F)F)c1)c1ccc(C2CC2)c(-c2ccc3nc(Nc4cnn(C5CC5)c4)ncc3c2)c1 [Compound S15, 4-cyclopropyl-3-(2-((1-cyclopropyl-1H-pyrazol-4-yl)amino)quinazolin-6-yl)-N-(3-(trifluoromethyl)phenyl)benzamide]
- active TGF-β1 in BALF [1]: 48 pg/mL
- protein concentration in BALF [2]: reduce the number of inflammatory cells and the concentration of related proteins in a dose-dependent manner
- total number of inflammatory cells in BALF [2]: reduce the number of inflammatory cells and the concentration of related proteins in a dose-dependent manner
- cytotoxic activity on MRC-5 [3]: almost no toxicity
